Measurements as given in paper PMC3266282, “Role of AMP-Activated Protein Kinase on Steroid Hormone Biosynthesis in Adrenal NCI-H295R Cells” (PLoS ONE, 2012).

Biological target: T1, CYP17A1 (17α-hydroxylase/17,20 lyase) (Homo sapiens, UniProt P05093)
T1 construct: human recombinant CYP17A1 co-expressed with POR in yeast microsomes; with human P450 oxidoreductase (POR)
T1 sequence (P05093 1-508): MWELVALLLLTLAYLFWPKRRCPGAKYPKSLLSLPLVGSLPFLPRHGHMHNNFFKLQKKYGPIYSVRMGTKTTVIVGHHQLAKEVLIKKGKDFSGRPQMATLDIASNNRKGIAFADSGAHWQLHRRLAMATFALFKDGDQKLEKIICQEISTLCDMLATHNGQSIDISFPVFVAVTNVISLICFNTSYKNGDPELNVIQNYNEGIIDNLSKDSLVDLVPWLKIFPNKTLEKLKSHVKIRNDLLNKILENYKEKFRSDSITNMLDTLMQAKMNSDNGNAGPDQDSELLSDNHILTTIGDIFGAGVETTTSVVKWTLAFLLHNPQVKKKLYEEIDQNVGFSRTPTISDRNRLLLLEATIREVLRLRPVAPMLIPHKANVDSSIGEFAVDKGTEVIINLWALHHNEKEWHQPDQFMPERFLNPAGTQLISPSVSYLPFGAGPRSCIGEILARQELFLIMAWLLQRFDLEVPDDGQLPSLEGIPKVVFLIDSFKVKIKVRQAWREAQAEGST
T1 sequence (P16435 2-677 partner): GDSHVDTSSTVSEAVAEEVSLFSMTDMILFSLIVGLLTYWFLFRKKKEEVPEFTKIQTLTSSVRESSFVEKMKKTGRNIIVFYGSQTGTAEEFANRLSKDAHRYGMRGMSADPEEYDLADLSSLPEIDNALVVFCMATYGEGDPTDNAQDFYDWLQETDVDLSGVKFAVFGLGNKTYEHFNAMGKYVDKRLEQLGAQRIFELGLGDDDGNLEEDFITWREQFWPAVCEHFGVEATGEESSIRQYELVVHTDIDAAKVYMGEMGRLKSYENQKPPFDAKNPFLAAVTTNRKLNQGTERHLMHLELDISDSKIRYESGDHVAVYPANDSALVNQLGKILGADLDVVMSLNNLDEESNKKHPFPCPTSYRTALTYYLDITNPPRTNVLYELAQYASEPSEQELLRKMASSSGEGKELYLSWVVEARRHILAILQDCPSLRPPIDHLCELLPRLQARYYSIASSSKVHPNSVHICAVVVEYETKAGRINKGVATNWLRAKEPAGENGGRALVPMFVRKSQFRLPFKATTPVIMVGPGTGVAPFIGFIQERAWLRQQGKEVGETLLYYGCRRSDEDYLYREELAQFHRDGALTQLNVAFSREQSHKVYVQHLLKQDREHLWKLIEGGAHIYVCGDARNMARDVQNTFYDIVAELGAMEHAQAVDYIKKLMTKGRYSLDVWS
Experiment: […]α-hydroxylase activity in yeast microsomes with radiolabelled steroid substrate, TLC readout, dose-response
Format: biochemical

Question: `c1cc(-c2cnn3cc(-c4ccc(OCCN5CCCCC5)cc4)cnc23)ccn1` [compound C] was tested. Which IC50 did it give?
Answer: 9.6 nM
